Measured values reported in paper PMC9551036, “A selective and orally bioavailable VHL-recruiting PROTAC achieves SMARCA2 degradation in vivo” (Nature Communications, 2022).
In brackets after ≈: the same amount, converted by molar mass. Several values for one entry are separate records, joined by “and”; a condition that tells them apart may be missing. Identical values can stand only once. Like-named read-outs stand apart in the source and are kept apart here.

How the values were obtained:
[1] = Solubility testing; assay type: physicochemical; conditions: for solubility at 24 h: buffer, kinetic from dmso stock
Experimental: Dilution into a 1:1 mixture of acetonitrile and water was used as reference. After 24 h, the incubations were filtrated, and the filtrate was analyzed by LC-UV.

[2] = biological target: VCB: PROTAC: SMARCA4^BD ternary complex (Homo sapiens, UniProt P40337+P51532); assay: SPR ternary complex measurement, VCB immobilised, 10 µM SMARCA4^BD present; assay type: binding; parameters: P51532, residues 1448–1569 with additional N-terminal SM residues; His6 (TEV site) (N, cleaved yes); GST (TEV site) (N, cleaved yes); made in house; host or cells: SMARCA4^BD: Escherichia coli BL21(DE3); conditions: for Kd: SPR; for alpha: cooperativity, SMARCA4, ratio of KD values measured in the same run
Chain of VCB: PROTAC: SMARCA4^BD ternary complex (P40337 54-213): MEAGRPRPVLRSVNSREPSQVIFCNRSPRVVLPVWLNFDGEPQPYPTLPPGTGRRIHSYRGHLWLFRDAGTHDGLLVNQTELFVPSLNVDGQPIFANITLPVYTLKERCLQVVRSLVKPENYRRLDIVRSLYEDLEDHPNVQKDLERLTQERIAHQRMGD
Chain of VCB: PROTAC: SMARCA4^BD ternary complex (Q15369 17-112 partner limits assumed): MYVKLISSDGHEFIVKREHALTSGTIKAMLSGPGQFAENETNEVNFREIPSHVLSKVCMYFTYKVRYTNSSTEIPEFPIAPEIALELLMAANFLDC
Chain of VCB: PROTAC: SMARCA4^BD ternary complex (Q15370 1-104 partner limits assumed): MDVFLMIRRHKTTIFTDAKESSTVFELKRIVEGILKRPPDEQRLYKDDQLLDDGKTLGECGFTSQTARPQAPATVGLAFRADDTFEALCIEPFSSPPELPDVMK
Chain of VCB: PROTAC: SMARCA4^BD ternary complex (P51532 1448-1569): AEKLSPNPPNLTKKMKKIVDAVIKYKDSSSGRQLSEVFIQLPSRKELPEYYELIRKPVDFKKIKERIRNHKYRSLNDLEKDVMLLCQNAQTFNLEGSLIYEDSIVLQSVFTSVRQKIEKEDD
Experimental: (§1) SPR data were acquired on Biacore 8K or T200 instruments (Cytiva). Target proteins were immobilised at 25 °C on CM5 chips by amine coupling (EDC/NHS, Cytiva) in HBS-P+ running buffer (pH 7.4), containing 2 mM TCEP. […] The reference surface was subsequently deactivated using 1 M ethanolamine. […] Biotinylated VCB was prepared as previously described[27]: in brief, the complex was mixed 1:1 with EZ-Link NHS–PEG4–biotin (Thermo Scientific) and incubated at room temperature for 1 h. Unreacted NHS-biotin was removed using a PD-10 desalting column (Cytiva) into 20 mM HEPES, pH 7.5, 150 mM sodium chloride and 1 mM DTT. The reference surface was generated by deactivating the EDC/NHS-treated surface with 1 M ethanolamine. All interaction experiments were done at 6 °C in running buffer (20 mM TRIS, pH 8.3, 150 mM potassium chloride, 2 mM magnesium chloride, 2 mM TCEP, 0.005% TWEEN 20, 1% dimethyl sulfoxide). For ternary complex measurements, a sensor chip surface with VCB immobilised was used (preparation as described above). Experiments were run in dual-inject mode with 10 µM SMARCA present during the injection and dissociation phase. Sensorgrams from reference surfaces and blank injections were subtracted from the raw data prior to data analysis using Biacore Insight software. Affinity and binding kinetic parameters were determined by global fitting using the 1:1 interaction model with a term for mass-transport included.

[3] = biological target: VCB: PROTAC: SMARCA2^BD ternary complex (Homo sapiens, UniProt P40337+P51531); assay: SPR ternary complex measurement, VCB immobilised, 10 µM SMARCA2^BD present; assay type: binding; parameters: P51531-2, residues 1373-1493 with additional N-terminal SM residues; His6 (TEV site) (N, cleaved yes); GST (TEV site) (N, cleaved yes); made in house; host or cells: SMARCA2^BD: Escherichia coli BL21(DE3); conditions: for Kd: SPR; for alpha: cooperativity, SMARCA2, ratio of KD values measured in the same run
Chain of VCB: PROTAC: SMARCA2^BD ternary complex (P40337 54-213): as the sequence (P40337 54-213) above
Chain of VCB: PROTAC: SMARCA2^BD ternary complex (Q15369 17-112 partner limits assumed): as the sequence (Q15369 17-112 partner limits assumed) above
Chain of VCB: PROTAC: SMARCA2^BD ternary complex (Q15370 1-104 partner limits assumed): as the sequence (Q15370 1-104 partner limits assumed) above
Chain of VCB: PROTAC: SMARCA2^BD ternary complex (P51531 1373-1493 isoform P51531-2): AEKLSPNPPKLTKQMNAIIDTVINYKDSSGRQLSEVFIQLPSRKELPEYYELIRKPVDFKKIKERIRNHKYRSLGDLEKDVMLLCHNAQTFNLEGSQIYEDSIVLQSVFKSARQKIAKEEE
Experimental: as §1

[4] = tested on: Caco-2 cell monolayer; assay: Bidirectional permeability measurement in Caco-2 cells; assay type: in vitro ADME; conditions: for Caco-2 Pba: Caco-2, b to a; for Modified Caco-2 Pab + PGPi (Zosuquidar): Modified Caco-2, a to b; for Modified Caco-2 Pba / Modified Caco-2 Pba + PGPi (Zosuquidar): Modified Caco-2, b to a
Experimental: Bidirectional permeability of test compounds across a Caco-2 cell monolayer was measured as described[43] with a modification of preincubation time[44]: Briefly, Caco-2 cells were seeded onto Transwell inserts (#3379, Corning, Wiesbaden, Germany) at a density of 160000 cells/cm^2 and cultured in DMEM (high glucose) containing 10% fetal bovine serum for 14–21 days. Cells were incubated with culture media containing 1 µM test compound for 24 h. […] Samples were taken at different time points for up to 2 h. Test compound in the samples was quantified with LC-MS/MS. To elucidate the role of drug transporter P-gp in the transcellular transport, permeability measurement was performed in the absence and presence of the selective P-gp inhibitor zosuquidar (5 µM final concentration). Apparent permeability coefficients (Papp,AB, Papp,BA) were calculated as follows:1 Papp,AB=Q_AB/C0×s×t 2 Papp,BA=Q_BA/C0×s×t where Q is the amount of compound recovered in the receiver compartment after the incubation time t, C0 the initial compound concentration given to the donor compartment, and s the surface area of the Transwell inserts. Efflux ratio is calculated as the quotient of Papp,BA (mean of duplicate) to Papp,AB (mean of duplicate). […] In addition, Transepithelial electrical resistance (TEER) values were measured for each plate before the permeability assay. All three parameters (efflux of the reference substrates, Papp values of the low permeable compound, and TEER values) were used to ensure the quality of the assays.

[5] = pH 4.5, aqueous buffer, pH 4.5, read-out: Solubility pH 4.5
[6] = pH 6.8, aqueous buffer, pH 6.8, read-out: Solubility pH 6.8
[7] = ternary complex with SMARCA4BD, mean ± SD
[8] = ternary complex with SMARCA2BD, mean ± SD

Compound	solubility at 24 h [1, 5] [µg/mL]	solubility at 24 h [1, 6] [µg/mL]	Kd [2, 7] [nM]	Kd ([2]; ternary, individual replicates)	alpha [2]	Kd [3, 8] [nM]	Kd ([3]; ternary, individual replicates)	alpha [3]	Caco-2 Efflux ratio ([4]; Caco-2)	Caco-2 Pab ([4]; Caco-2, a to b) [cm/s]	Solubility pH 4.5 ([1]; pH 4.5)	Solubility pH 6.8 ([1]; pH 6.8)	Caco-2 Pab ([4]; Caco-2)	other results
Cc1ncsc1-c1ccc(C(CCC(C)CCN2CCC(c3ccc4c(c3)n(C3CCCC3)c3nc(=O)c5c(Br)cccc5n43)CC2)NC(=O)C2CC(O)CN2C(=O)C(NC(=O)C2(F)CC2)C(C)(C)C)cc1 (stereo not shown) [ACBI2]	< 1	< 1	24 ± 4	21.9 nM and 22.7 nM and 28.4 nM	1.4	44 ± 11	35.8 nM and 56 nM and 41.1 nM	0.8						
O=c1nc2n(C3CCCC3)c3ccccc3n2c2cccc(Br)c12 [compound 1]	< 1	< 1							0.8	3.09e-05				
Nc1cccc2c1c(=O)nc1n(C3CCCC3)c3ccccc3n21 [compound 2]	< 1	< 1							0.5	3.7e-05				
CN1CCC(c2ccc3c(c2)n(C2CCCC2)c2nc(=O)c4c(Br)cccc4n32)CC1 [compound 3]	> 110	> 100							0.8	2.83e-05	> 100.000 ug/mL	> 110.000 ug/mL and 94.000 ug/mL		
Cc1ncsc1-c1ccc([C@H](COC(C)CN2CCC(c3ccc4c(c3)n(C3CCCC3)c3nc(=O)c5c(Br)cccc5n43)CC2)NC(=O)[C@@H]2C[C@@H](O)CN2C(=O)[C@@H](NC(=O)C2(F)CC2)C(C)(C)C)cc1 (stereo partly shown) [compound 9]	14 (≈ 13.3 µM)	< 1	180 ± 13	171 nM and 174 nM and 195 nM	0.2	210 ± 83	132 nM and 298 nM and 201 nM	0.2						Caco-2 Pba [4]: 21 ×10⁻⁶ cm/s and 18 ×10⁻⁶ cm/s; Modified Caco-2 Efflux ratio [4]: 60.000 and 39 ± 21; Modified Caco-2 Pab + PGPi (Zosuquidar) [4]: 11 ×10⁻⁶ cm/s and 14 ×10⁻⁶ cm/s; Modified Caco-2 Pba [4]: 130 ×10⁻⁶ cm/s and 120 ×10⁻⁶ cm/s; Modified Caco-2 Pba + PGPi (Zosuquidar) [4]: 18 ×10⁻⁶ cm/s
Cc1ncsc1-c1ccc([C@H](COC(C)CN2CCC(c3ccc4c(c3)n(C3CCCC3)c3nc(=O)c5c(Br)cccc5n43)CC2)NC(=O)[C@@H]2C[C@@H](O)CN2C(=O)[C@@H](NC(=O)C2(N(C)C)CC2)C(C)(C)C)cc1 (stereo partly shown) [compound 10]	210 (≈ 195 µM)	< 1	172 ± 115	305 nM and 102 nM and 109 nM	0.7	159 ± 80	74 nM and 233 nM and 171 nM	0.8	5			2.000 ug/mL	6 10-6 cm/s	Caco-2 Pba [4]: 21 ×10⁻⁶ cm/s; Modified Caco-2 Efflux ratio [4]: 36; Modified Caco-2 Pba [4]: 99 ×10⁻⁶ cm/s and 88 ×10⁻⁶ cm/s
Cc1ncsc1-c1ccc([C@H](CCCCCN2CCC(c3ccc4c(c3)n(C3CCCC3)c3nc(=O)c5c(Br)cccc5n43)CC2)NC(=O)[C@@H]2C[C@@H](O)CN2C(=O)[C@@H](NC(=O)C2(F)CC2)C(C)(C)C)cc1 [compound 11]	< 1	< 1	18 ± 2	16.7 nM and 16.3 nM and 19.3 nM	0.6	37 ± 12	45.4 nM and 28.1 nM	0.3						solubility [1]: moderate solubility; Caco-2 permeability [4]: improved permeability; efflux ratio ([4]; Caco-2): high efflux ratio; Modified Caco-2 + PGPi (Zosuquidar) Pab ([4]; Modified Caco-2 + PGPi (Zosuquidar)): 11 ± 3 10-6 cm/s; Modified Caco-2 Pab + PGPi (Zosuquidar) [4]: 12 ×10⁻⁶ cm/s and 16 ×10⁻⁶ cm/s and 9 ×10⁻⁶ cm/s and 8.7 ×10⁻⁶ cm/s; Modified Caco-2 Pba + PGPi (Zosuquidar) [4]: 19 ×10⁻⁶ cm/s
Cc1ncsc1-c1ccc([C@H](CC[C@H](C)CCN2CCC(c3ccc4c(c3)n(C3CCCC3)c3nc(=O)c5c(Br)cccc5n43)CC2)NC(=O)[C@@H]2C[C@H](O)CN2C(=O)[C@@H](NC(=O)C2(F)CC2)C(C)(C)C)cc1 [compound 12]	< 1	< 1												
CN1CCN(c2nc(=O)c3c(Cl)cccc3o2)CC1 [compound 13]									0.606 and 0.6	9.26e-05	>70.000 ug/mL	>71.000 ug/mL	93 10-6 cm/s	
CN1CCN(c2nc(=O)c3c(Br)cccc3o2)CC1 [compound 15]											>83.000 ug/mL	>82.000 ug/mL		
CN1CCN(c2nc(=O)c3c(I)cccc3o2)CC1 [compound 16]											>97.000 ug/mL	>97.000 ug/mL		
Cc1ncsc1-c1ccc(CNC(=O)[C@@H]2C[C@H](O)CN2C(=O)[C@@H](NC(=O)C2(F)CC2)C(C)(C)C)c(OCCN2CCC(c3ccc4c(c3)n(C3CCCC3)c3nc(=O)c5c(Br)cccc5n43)CC2)c1 [compound 19]											<1.000 ug/mL	<1.000 ug/mL		
Cc1ncsc1-c1ccc(CNC(=O)[C@@H]2C[C@@H](O)CN2C(=O)[C@@H](NC(=O)C2(F)CC2)C(C)(C)C)c(OCCN2CCC(c3ccc4c(c3)n(C3CCCC3)c3nc(=O)c5c(Br)cccc5n43)CC2)c1 [compound 20]			67 ± 3	67.7 nM and 69.3 nM and 63.7 nM	0.1	97 ± 10	89.5 nM and 108 nM and 91.8 nM	0.1		<4.04e-07	<1.000 <1.000 <1.000 <1.000 <1.000 ug/mL	<1.000 <1.000 <1.000 <1.000 <1.000 ug/mL	<0.4 10-6 cm/s	
Cc1ncsc1-c1ccc(CNC(=O)[C@@H]2C[C@@H](O)CN2C(=O)[C@@H](NC(=O)C2(F)CC2)C(C)(C)C)c(OCCOCCOCCN2CCC(c3ccc4c(c3)n(C3CCCC3)c3nc(=O)c5c(Br)cccc5n43)CC2)c1 [compound 21]			16 ± 11	28 nM and 7.74 nM and 13 nM	1.3	58 ± 8	49 nM and 65.4 nM and 58.3 nM	0.4		<2.83e-07	200.000 ug/mL and 180.000 ug/mL and 190.000 ug/mL		<0.3 10-6 cm/s	
Cc1ncsc1-c1ccc(CNC(=O)[C@@H]2C[C@@H](O)CN2C(=O)[C@@H](NC(=O)C2(F)CC2)C(C)(C)C)c(OCCOCCOCCOCCN2CCC(c3ccc4c(c3)n(C3CCCC3)c3nc(=O)c5c(Br)cccc5n43)CC2)c1 [compound 22]			26 ± 2	24.6 nM and 23.9 nM and 28 nM	1.5	77 ± 14	66.2 nM and 92.4 nM and 71.3 nM	0.5		<2.78e-07			<0.3 10-6 cm/s	
